Key:
[1] = target: T1, PARP (Homo sapiens, UniProt P09874); conditions: caspase-3 null MCF-7 cells; cited from earlier work
T1 construct: on PARP activity has been determined in caspase-3 null MCF-7 cells; host or cells: MCF-7

[2] = system: MDA-MB-231 cells; assay: Oxidation of DCF (oxidant level) in cells; format: cell-based, human; conditions: 100 μM, 37° C., MDA-MB-231 as representative example
Protocol: DCF loaded cells were treated with IPA/NO-aspirin (blue), DEA/NO-aspirin (green), IPA/NO (magenta), DEA/NO (brown), aspirin (red) or DMSO (0.1%; black) at 37° C., and the fluorescence at 535 nm was measured in a time-dependent manner. Data are plotted as mean±SD (n=4).

[3] = Decomposition kinetics by UV spectrophotometry in PBS; format: physicochemical; conditions: for pH dependence of hydrolysis rate: 37° C.
Protocol: FIGS. 3A and 3B are graphs illustrating the pH-dependence of the rate constant of decomposition of (FIG. 3A) 1 (100 or 200 μM) and (FIG. 3B) 2 (100 μM) at 37° C. in PBS containing 50 μM DTPA measured at 250 nm (mean±SEM, n≥3).
(§1) The rate constants of decomposition were measured spectrophotometrically by monitoring the decrease in absorbance of peaks at ^˜240-250 nm characteristic of the diazeniumdiolate functionality. The hydrolysis medium consisted of the metal chelator diethylenetriaminepentaacetic acid (DTPA, 50 μM) in calcium- and magnesium-free Dulbecco's phosphate-buffered saline (PBS, pH 7.4). UV-visible spectroscopy was performed with a Hewlett-Packard 8453 diode-array spectrophotometer equipped with Agilent 89090A thermostat set to 37° C. The spectrophotometer was blanked after warming the cuvette containing buffer at the appropriate pH in the instrument heat block for 5 min. For esterase-containing reactions, porcine liver esterase (20 μL; Sigma; suspension in 3.2 M (NH4)2SO4, pH 8) was added to the reaction buffer before blanking. Upon addition of IPA/NO (1) or AcOM-IPA/NO (2) (≤10 μL of stock), the cuvette was capped and inverted to mix. Spectra were collected at 0.5- to 60-s intervals for time periods of 2-120 min or until A∞<0.05. Kinetic analysis was performed by fitting the data to an exponential decay (A=ΔAe^−kt+A∞) using KaleidaGraph v.3.1.

[4] = Alkaline hydrolysis at pH 11 followed by NMR; format: physicochemical
Protocol: Organic products of the hydrolysis of 1 and 2 were quantified by integrating their NMR spectra. For pH 7.4, 3.9 mM solutions in 0.1 M phosphate buffer were employed. For pH 11, 4.9 mM solutions of 1 and 2 in 50 mM sodium carbonate were studied. Samples were run on a Varian Inova 400 MHz NMR with a Dell Precision 390 workstation. The samples were run at 37° C. and water suppression was achieved by using the preset pulse sequence. Peaks were identified by comparison with authentic standards.
Differences in time course as well as stoichiometry in the alkaline hydrolysis of 1 and 2 also matched the expectation based on the HNO/NO yield and rate data. […] Compound 2, on the other hand, completely dissociated within 5 min at 37° C. in a pH 11 carbonate buffer. […] However, the amine was undetectable.

[5] = system: porcine liver esterase; assay: Esterase-catalyzed hydrolysis; format: in vitro ADME
Protocol: FIGS. 4A-C are graphs illustrating spontaneous hydrolysis (FIGS. 4A and 4B) and esterase-catalyzed hydrolysis (FIG. 4C) of 2 in an embodiment of the invention. In FIG. 4A, spectra were collected every 60 s (10-min intervals shown) after dissolving 2 in PBS (pH 7.4) at 37° C., and only loss of the parent compound was observed. In FIG. 4B, the pH was elevated to 12, and scans were collected every 0.5 s (through 2.5 s and 3.5, 5.5, 9.5, and 54.5 shown). In FIG. 4C, porcine liver esterase (20 μL in 3 mL) was added (pH 7.4), and spectra were collected every 10 s. Hydrolysis of 2 (λmax 236 nm) to 1 (λmax 250 nm) was complete within 40 s (0.067 s^−1) under these conditions. […] Elevation of the intensity near 200 nm indicated formation of autoxidation products such as nitrite. Deaeration inhibited this peak (data not shown).
as §1

[6] = target: hypoxia-inducible factor (HIF) 1α (Homo sapiens, UniProt Q16665); conditions: high concentration, human breast cancer cells; cited from earlier work
[7] = system: vascular endothelial growth factor (VEGF); conditions: high concentration; cited from earlier work
[8] = system: MDA-MB-231 xenograft; conditions: SCID mice, 17 and 50 mg kg^−1, compared to control; cited from earlier work
[9] = system: angiogenesis in mouse tumor specimens; conditions: high concentration; cited from earlier work
[10] = system: various cancer cells lines; conditions: read-out: IC50 (cytotoxicity); cited from earlier work
[11] = system: BCL-2; assay: BCL-2 expression; format: cell-based; conditions: FIG. 18
[12] = system: MDA-MB-231 xenografts; assay: MDA-MB-231-GFP xenograft growth and brain metastasis in nude mice; format: in vivo; conditions: daily injection of equimolar doses for five weeks, vs control
Protocol: The cells were allowed to grow for 14 d, and the animals (40) were randomly divided into four groups (control, aspirin, IPA/NO-aspirin or DEA/NO-aspirin). Treated groups were injected daily with equimolar doses of DEA/NO-aspirin or IPA/NO-aspirin (16 mg kg^−1) or aspirin (9 mg kg^−1)) or with DMSO for the next five weeks.
For examples utilizing mouse tumor model methods, the following procedure was instituted. Analysis of tumor growth was carried out using protocols approved by the Committee on the Ethics of Animal Experiments of the National Cancer Institute (RBB-144) and adhered with the recommendations in the United States National Research Council's “Guide for the Care and Use of Laboratory Animals,” the United States Public Health Service's “Guide for the Care and Use of Laboratory Animals” and the “Policy on Humane Care and Use of Laboratory Animals”. The vivarium was maintained at 23° C. on a 12 h light/12 h dark cycle with ad libitum access to food and water. Nude mice (n=40) under general anesthesia were implanted with 7.5×10^5 MDA-MB-231 cells transfected with GFP by injection underneath the fourth left mammary gland. Prior to implantation, pedal withdrawal and eyelid reflexes were examined to ensure that mice were under stage III of anesthesia. At 14 days post-inoculation, the mice were randomly divided into four groups and treated by daily injection of equimolar doses (10 μL of 100 mM stock) of aspirin (9.00 mg kg^−1), IPA/NO-aspirin (15.8 mg kg^−1) or DEA/NO-aspirin (16.3 mg kg^−1) or with vehicle (DMSO). After five weeks, the tumor size was measured using in vivo fluorescent imaging for quantification of the GFP tag. In brief, mice were under general anesthesia throughout the whole body imaging process, and GFP signals were captured and quantified in an Xenogen IVIS 100 Imaging System according to the manufacturer's protocol. To assess metastasis in the brain, the animals were subsequently sacrificed following the approved method and guidelines.

[13] = system: ER-α; assay: ER-α levels (mRNA of ER1) in ER-α(−) cells; format: cell-based; conditions: FIG. 20
[14] = system: MB-231 cells; assay: cells; conditions: Homo sapiens, 48 h
Protocol: In this example, a 3-(4,5-dimethylthiazol-2-yl)-2,5-diphenyltetrazolium bromide (MTT)viability assay was used to evaluate combination therapy to on the cytotoxicity of cancer cells using compound embodiments.
Cells were plated at 8,000-10,000 cells per well in a 96-well plate and grown overnight. […] Thereafter, 10 μL of 5 mg/mL MTT was added to each well, and the plate was incubated for 1 hour at 37° C. After removal of the media, 100 μL of DMSO was added to each well, and the absorbance was recorded at 550 nm. Growth inhibition is reported as the percentage of the corresponding control.

[15] = porcine liver esterase 20 μL in 3 mL, pH 7.4

T1 sequence (P09874 whole entry): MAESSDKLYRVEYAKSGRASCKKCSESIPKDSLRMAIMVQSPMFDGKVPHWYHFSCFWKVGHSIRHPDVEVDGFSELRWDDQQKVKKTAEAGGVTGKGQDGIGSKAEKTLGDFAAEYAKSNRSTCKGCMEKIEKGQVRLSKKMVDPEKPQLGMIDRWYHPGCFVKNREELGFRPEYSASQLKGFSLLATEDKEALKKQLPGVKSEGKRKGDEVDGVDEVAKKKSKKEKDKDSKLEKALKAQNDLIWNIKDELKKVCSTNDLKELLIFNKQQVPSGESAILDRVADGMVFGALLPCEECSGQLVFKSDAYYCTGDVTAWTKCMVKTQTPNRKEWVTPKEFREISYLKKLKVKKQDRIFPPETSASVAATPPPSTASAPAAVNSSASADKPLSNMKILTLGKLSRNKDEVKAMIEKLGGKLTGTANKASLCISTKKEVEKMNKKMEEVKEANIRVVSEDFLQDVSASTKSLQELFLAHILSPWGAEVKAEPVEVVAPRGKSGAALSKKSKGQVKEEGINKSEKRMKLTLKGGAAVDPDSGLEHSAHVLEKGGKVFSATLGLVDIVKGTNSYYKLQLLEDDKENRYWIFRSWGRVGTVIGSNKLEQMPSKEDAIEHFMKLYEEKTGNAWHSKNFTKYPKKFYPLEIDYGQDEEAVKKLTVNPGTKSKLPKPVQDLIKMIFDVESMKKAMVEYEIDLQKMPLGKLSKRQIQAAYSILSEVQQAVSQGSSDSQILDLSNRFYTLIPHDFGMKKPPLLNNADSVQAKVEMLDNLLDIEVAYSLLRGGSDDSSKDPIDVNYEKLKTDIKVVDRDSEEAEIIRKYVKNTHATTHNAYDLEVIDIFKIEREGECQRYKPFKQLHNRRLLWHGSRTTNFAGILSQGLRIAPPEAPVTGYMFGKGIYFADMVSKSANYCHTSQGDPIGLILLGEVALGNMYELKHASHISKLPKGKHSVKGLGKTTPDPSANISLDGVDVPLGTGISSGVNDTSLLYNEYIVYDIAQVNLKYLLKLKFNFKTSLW
Chain of hypoxia-inducible factor (HIF) 1α (Q16665 whole entry): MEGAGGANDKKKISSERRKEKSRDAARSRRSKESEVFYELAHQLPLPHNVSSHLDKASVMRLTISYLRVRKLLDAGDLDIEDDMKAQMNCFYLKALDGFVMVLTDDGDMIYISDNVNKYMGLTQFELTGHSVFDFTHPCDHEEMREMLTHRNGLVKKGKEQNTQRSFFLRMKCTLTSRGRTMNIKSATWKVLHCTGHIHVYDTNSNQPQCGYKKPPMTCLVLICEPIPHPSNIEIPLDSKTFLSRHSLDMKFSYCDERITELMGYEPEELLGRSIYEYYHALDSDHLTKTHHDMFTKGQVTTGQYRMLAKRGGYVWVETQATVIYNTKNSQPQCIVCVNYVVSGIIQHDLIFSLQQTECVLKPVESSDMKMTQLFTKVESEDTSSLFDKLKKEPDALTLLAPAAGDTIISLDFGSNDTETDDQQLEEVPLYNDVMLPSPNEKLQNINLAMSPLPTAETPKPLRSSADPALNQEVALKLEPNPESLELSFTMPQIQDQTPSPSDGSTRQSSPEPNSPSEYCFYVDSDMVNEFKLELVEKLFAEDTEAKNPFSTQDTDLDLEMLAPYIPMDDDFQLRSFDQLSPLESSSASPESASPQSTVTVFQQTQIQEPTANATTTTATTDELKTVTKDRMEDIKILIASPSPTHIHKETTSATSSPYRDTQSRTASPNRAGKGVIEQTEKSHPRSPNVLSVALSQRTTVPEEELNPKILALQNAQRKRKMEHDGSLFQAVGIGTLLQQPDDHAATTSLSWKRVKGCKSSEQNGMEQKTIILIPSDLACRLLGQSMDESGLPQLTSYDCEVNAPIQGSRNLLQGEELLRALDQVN

CCN(CC)[N+]([O-])=N[O-].[Na+] [DEA/NO, O^2-Sodium 1-(N,N-Diethylamino)diazen-1-ium-1,2-diolate]
inhibitory effect on PARP activity [1]: rapid, but required rather high concentrations of donor | oxidation of DCF (fluorescence intensity) [2]: oxidized DCF, but to a much reduced extent

CC(=O)OCO/N=[N+](\[O-])NC(C)C [Compound 2, O^2-(acetoxymethyl)1-(isopropylamino)diazen-1-ium-1,2-diolate]
pH dependence of hydrolysis rate ([3]; PBS with 50 μM DTPA): essentially first order in hydroxide ion concentration between pH 5 and 11 | hydrolysis rate relative to 1 ([3]; physiological pH): an order of magnitude slower | time to complete dissociation ([4]; 37° C., pH 11 carbonate buffer): ≤ 5 min | rate of hydrolysis of 2 to 1 [5, 15]: 0.067 s⁻¹ | time to complete hydrolysis of 2 to 1 [5, 15]: ≤ 40 s

CC(C)N[N+]([O-])=N[O-].[Na+] [Compound 1, O^2-Sodium 1-(N-Isopropylamino)diazen-1-ium-1,2-diolate, reference compound]
pH dependence of hydrolysis rate ([3]; PBS with 50 μM DTPA): slowed as the pH was increased from 3 to 10, with a small increase in rate thereafter | rate of decay of 1 ([3]; PBS with 50 μM DTPA, 37° C. (FIG. 3A)): 0.0012 s⁻¹ | hydrolysis at pH 11 ([4]; pH 11): hydrolyzed slowly | hydrolysis rate relative to 2 (more slowly) ([4]; pH 11): 100 fold | oxidation of DCF (fluorescence intensity) [2]: oxidized DCF, but to a much reduced extent | rate of decay of 1 ([5]; 1 formed from 2 with esterase, pH 7.4 (FIG. 4C)): 0.0033 s⁻¹

[Na+].[Na+].[O-][N+]([O-])=NO [Angeli's salt, Na2N2O3]
inhibitory effect on PARP activity [1]: rapid, but required rather high concentrations of donor | HIF 1α [6]: inhibited | serum VEGF levels [7]: decreased | tumor growth [8]: some inhibition of tumor growth | angiogenesis [9]: inhibited angiogenesis

CC(=O)Oc1ccccc1C(=O)O [aspirin, reference compound]
IC50 [10]: > 1000 µM | BCL-2 expression [11]: induce BCL-2 expression | size of the primary tumor (GFP fluorescence intensity, tumor mass) [12]: did not significantly decrease | oxidation of DCF (fluorescence intensity) [2]: ineffective compared to control | ER-α levels [13]: increases ERα levels

CC/C(=C(\c1ccccc1)c1ccc(OCCN(C)C)cc1)c1ccccc1 [tamoxifen]
viability at 10 µM [14]: 76%
